In patent publication US6933319B2, “Resorcinol derivatives” (Pfizer Inc., priority 1999, dated 2005):

Target: T1, human tyrosinase (Homo sapiens, UniProt P14679)
T1 construct: endogenous in cells; host or cells: SKMEL 188 human melanoma cell line (lysate)
T1 sequence (P14679 19-529): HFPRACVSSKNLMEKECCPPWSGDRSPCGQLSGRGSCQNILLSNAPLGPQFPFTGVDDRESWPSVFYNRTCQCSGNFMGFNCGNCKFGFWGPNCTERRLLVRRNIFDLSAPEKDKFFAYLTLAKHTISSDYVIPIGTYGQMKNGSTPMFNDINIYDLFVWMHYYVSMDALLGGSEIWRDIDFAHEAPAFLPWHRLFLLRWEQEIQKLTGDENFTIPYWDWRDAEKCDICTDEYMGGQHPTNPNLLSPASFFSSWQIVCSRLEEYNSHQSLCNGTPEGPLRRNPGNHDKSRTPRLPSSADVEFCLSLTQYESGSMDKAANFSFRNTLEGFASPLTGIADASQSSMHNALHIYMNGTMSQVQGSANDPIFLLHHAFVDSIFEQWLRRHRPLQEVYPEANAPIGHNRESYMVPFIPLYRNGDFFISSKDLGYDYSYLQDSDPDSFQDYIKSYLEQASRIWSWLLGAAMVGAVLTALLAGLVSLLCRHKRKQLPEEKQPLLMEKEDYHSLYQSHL
Assay: Tyrosinase (DOPA Oxidase) Assay Using Cell Lysate
Assay type: biochemical
Conditions: SKMEL 188 human melanoma cell lysate; L-DOPA 100 μg/ml; incubated 8 hrs; read at 405 nm
Experimental: 1. Tyrosinase (DOPA Oxidase) Assay Using Cell Lysate:
Human melanoma cell line, SKMEL 188 (licensed from Memorial Sloan-Kettering), is used in the cell lysate assay and the screen. In the assay, compounds and L-dihydroxyphenylalanine (L-DOPA) (100 μg/ml) are incubated with the cell lysates containing human tyrosinase for 8 hrs before the plates are read at 405 nm. Potency of the compounds in DOPA oxidase assay is correlated very well with that in tyrosine hydroxylase assay using ^3H-tyrosine as a substrate.

## ON=C1CCC(c2ccc(O)cc2O)C1 (racemic) [Example 23, (±)-3-(2,4-Dihydroxyphenyl)cyclopentanone oxime]
  IC50: ~2000 nM
